Results from patent US20160324852A1, “COMPOSITIONS AND METHODS OF TREATING A NEURODEGENERATIVE DISEASE” (Axovant Sciences Ltd., priority 2015, published 2016).

Columns and labels:
[1] = test system: mice; assay: nonclinical studies, seizures in mice; assay type: in vivo
[2] = test system: rats; assay: nonclinical studies, seizures in rats; assay type: in vivo
[3] = test system: healthy subjects; assay: clinical studies with healthy subjects (n=225), seizures; assay type: in vivo; settings: single doses of up to 175 mg and repeat doses of up to 50 mg for 13 days
Description: (§1) The 35 mg dose was evaluated in four Phase 2 trials and is the dose being evaluated in a Phase 3 pivotal study. In the AZ310866 Phase 2b study, there was a dose dependent increase in efficacy vs placebo in the ADAS-Cog score between 15 mg (−0.7 units) and 35 mg (−1.7 units). […] These benefits need to be balanced with the potential for adverse events, in particular, the CNS toxicity observed in dogs and rabbits described below. […] In the 26-week dog study, one high-dose dog had seizures on Day 55 and was euthanized. A second dog had seizures on Day 59 and survived. For the second dog, plasma samples taken approximately 5 minutes and two hours after the seizure (4 and 6 hours post dose on Day 59) had SB742457 concentrations of 1570 and 1440 ng/mL, respectively. […] In study SB742457/005, elderly subjects received 35 mg once daily of 3-phenylsulfonyl-8-piperazinyl-1yl-quinoline for 28 days. […] This mean value is approximately ¼th the Cmax value observed in dogs with seizures. The maximum concentration that may be achieved is approximately ½ the Cmax value observed in the 2 dogs with seizures. […]

[4] = test system: rabbits; assay: nonclinical studies, seizures in rabbits; assay type: in vivo
Description: as §1

[5] = study SB742457/005, pharmacokinetics in elderly subjects; assay type: in vivo, human; settings: for Cmax: human, plasma
Description: (§2) The 35 mg dose was evaluated in four Phase 2 trials and is the dose being evaluated in a Phase 3 pivotal study. In the AZ310866 Phase 2b study, there was a dose dependent increase in efficacy vs placebo in the ADAS-Cog score between 15 mg (−0.7 units) and 35 mg (−1.7 units). […] These benefits need to be balanced with the potential for adverse events, in particular, the CNS toxicity observed in dogs and rabbits described below. […] In the 26-week dog study, one high-dose dog had seizures on Day 55 and was euthanized. A second dog had seizures on Day 59 and survived. For the second dog, plasma samples taken approximately 5 minutes and two hours after the seizure (4 and 6 hours post dose on Day 59) had SB742457 concentrations of 1570 and 1440 ng/mL, respectively. […] In study SB742457/005, elderly subjects received 35 mg once daily of 3-phenylsulfonyl-8-piperazinyl-1yl-quinoline for 28 days. […] This mean value is approximately ¼th the Cmax value observed in dogs with seizures. The maximum concentration that may be achieved is approximately ½ the Cmax value observed in the 2 dogs with seizures. To further understand the risk to humans, SimCYP population PBPK modelling was used to predict brain concentrations of 3-phenylsulfonyl-8-piperazinyl-1yl-quinoline in dogs exposed to the concentrations linked with seizures, and to compare these with predicted human brain concentrations at the clinical dose of 35 mg. The simulations predicted that the human steady-state brain concentrations following repeat administration with 35 mg would be approximately 40-fold lower than the brain concentrations associated with seizures in dogs. Assuming linear pharmacokinetics, the human steady-state brain concentrations with 70 mg would be approximately 20-fold lower than the brain concentrations associated with convulsions in dogs. […] Furthermore, in Phase 2 studies encompassing 1024 patients with Alzheimer's disease at doses of 5 mg to 35 mg per day, two subjects reported seizures, both in the Phase 2b study with 3-phenylsulfonyl-8-piperazinyl-1yl-quinolone administered as adjunctive therapy to donepezil. One subject was in the placebo group and one in the 15 mg 3-phenylsulfonyl-8-piperazinyl-1yl-quinoline group. The subject receiving 3-phenylsulfonyl-8-piperazinyl-1yl-quinoline was hospitalized with a suspicion of a TIA and experienced a seizure, which was reported by the PI as not attributable to study drug.

[6] = clinical; settings: human, in vivo
[7] = rat maximal electroshock seizure threshold test; settings: in vivo, exposure at which seizure threshold was not decreased, read-out: extrapolated Cmax
Description: as §1

[8] = test system: dogs; assay: in vivo; settings: dog
Description: as §2

[9] = in vivo; settings: dog
Description: as §2

[10] = test system: patients with Alzheimer's disease; assay: AZ310866 Phase 2b study, ADAS-Cog score vs placebo; assay type: in vivo, human
Description: as §1

[11] = test system: healthy rat brain glucose utilization; assay: FDG-PET/CT brain glucose utilization in healthy rats; assay type: in vivo; settings: healthy young CD rats, 10 mg/kg or 20 mg/kg 3 h prior to FDG; pairwise comparisons did not reach statistical significance
Description: 3-phenylsulfonyl-8-piperazinyl-1yl-quinoline is a potent antagonist of the 5-hydroxytryptamine 6 (5-HT6) serotonin receptor. Reduced glucose utilization is an early sign of decreasing brain function in AD. Altered neuronal glucose uptake assessed by flurodeoxyglucose-positron emission tomography (FDG-PET) may be useful as a diagnostic foundation for identifying patients with AD. This study evaluates 3-phenylsulfonyl-8-piperazinyl-1yl-quinoline at clinically relevant doses on healthy rat brain glucose utilization using FDG-PET/CT.
Methods: Healthy, young CD rats were pre-dosed with vehicle (1% methylcellulose, w/v) or RVT-101 (10 mg/kg or 20 mg/kg) 3 h prior to FDG (18.1±3.5 MBq, i.v.). Brain FDG standard uptake values (SUV) were quantified using scanning in single 20 min list mode (BioPET/CT, Sedecal) starting 30 min post FDG dosing. PET/CT scans were analyzed as a single time frame summarizing counts over 20 min. All experiments were completed in an accredited facility according to NIH guidelines. PET/CT imaging data were analyzed using Student's t-test, cluster analysis, and multivariate analysis of variance (MANOVA) using a subset of SUV from 5 cluster-identified regions.

[12] = test system: patients with Alzheimer's disease; assay: Phase 2 studies in 1024 patients with Alzheimer's disease, seizures; assay type: in vivo; settings: 15 mg group, Phase 2b study, adjunctive therapy to donepezil; reported as not attributable to study drug
Description: as §1

O=S(=O)(c1ccccc1)c1cnc2c(N3CCNCC3)cccc2c1 [3-phenylsulfonyl-8-piperazinyl-1yl-quinoline]
seizures [1]: not in rodents | seizures [2]: not in rodents | seizures [3]: no seizures were observed | seizures ([4]; nonclinical studies): caused seizures | seizures ([4]; single dose at 300 mg/kg, exceeded the maximum tolerated repeat-dose level): seizures were produced | Cmax ([5]; both sexes, 35 mg, elderly subjects, 35 mg once daily for 28 days, read-out: highest recorded Cmax): 307 ng/mL | Cmax ([5]; female, 35 mg, elderly females, 35 mg once daily for 28 days, read-out: mean Cmax): 177 ng/mL | expected maximum concentration at 70 mg relative to the Cmax observed in the 2 dogs with seizures ([5]; human 70 mg vs dog): approximately ½ | expected mean Cmax at 70 mg relative to the Cmax observed in dogs with seizures ([5]; human 70 mg vs dog): approximately ¼ | Cmax ([5]; oral, 70 mg, multiple dosing with 70 mg, extrapolated given linear human pharmacokinetics, read-out: expected maximum Cmax): 714 ng/mL | Cmax ([5]; oral, 70 mg, multiple dosing with 70 mg, extrapolated given linear human pharmacokinetics, read-out: expected mean Cmax): ~360 ng/mL | Cmax ([5]; male, 35 mg, elderly males, 35 mg once daily for 28 days, read-out: mean Cmax): 181 ng/mL | AUC [6]: ~3200 ng·h/mL | AUC(0-inf) [6]: ~9250 ng·h/mL | Cmax ([6]; Cmax): ~293 ng/mL | Cmax ([6]; mean Cmax): ~180 ng/mL | Cmax [7]: 1890 ng/mL | plasma concentration associated with an increased seizure risk [8]: > 1570 ng/mL | plasma concentrations achieved [8]: up to 1937 ng/mL | seizures ([8]; 7.5 mg/kg/day): did not occur | Cmax [9]: 1700 ng/mL | concentration at 4 h post dose on Day 59 [9]: 1570 ng/mL | concentration at 6 h post dose on Day 59 [9]: 1440 ng/mL | increase in efficacy vs placebo in the ADAS-Cog score ([10]; 15 mg): −0.7 units | increase in efficacy vs placebo in the ADAS-Cog score ([10]; 35 mg): −1.7 units | brain glucose uptake (FDG SUV) [11]: trend of increased glucose uptake | subjects reporting seizures [12]: one
